The record followed here is PMC11995724, “Antibiotic target discovery by integrated phenotypic and activity-based profiling of electrophilic fragments” (Cell chemical biology, 2025).

The viability is a read-out of living cells in per cent, often relative to untreated cells.

The data set is described as follows: in vitro. As to conditions: human, hek293t cells.
On to `C=CC(=O)NCc1ccc(C(=O)N2CCC(c3nc(C)no3)C2)cc1` (centres unmarked) [2-P08, N-({4-[3-(3-methyl-1,2,4-oxadiazol-5-yl)pyrrolidine-1-carbonyl]phenyl}methyl)prop-2-enamide], for which the viability at 48 h, 25 µM amounted to 52.5%.
Take `C=CC(=O)NCC1OCCc2sc(F)cc21` (centres unmarked) [2-P09, N-({2-fluoro-4H,6H,7H-thieno[3,2-c]pyran-4-yl}methyl)prop-2-enamide]: the viability at 48 h, 25 µM was 72.3%.
The result for `C=CC(=O)N1CCC(C(=O)N2CCCCC(SCC)C2)CC1` (centres unmarked) [2-P10, 1-{4-[3-(ethylsulfanyl)azepane-1-carbonyl]piperidin-1-yl}prop-2-en-1-one] reads 108%.
The result for `C=CC(=O)NCCCn1cnc2ccccc21` [2-P11, N-[3-(1H-1,3-benzodiazol-1-yl)propyl]prop-2-enamide] reads 62%; that for `C=CC(=O)N1CCC(C(=O)N(C)C2CCCc3c2cnn3C)CC1` (centres unmarked) [2-P12, N-methyl-N-(1-methyl-4,5,6,7-tetrahydro-1H-indazol-4-yl)-1-(prop-2-enoyl)piperidine-4-carboxamide], 78.2%.
The result for `C=CC(=O)NCc1nc(C2CC2)oc1C` [2-P13, N-[(2-cyclopropyl-5-methyl-1,3-oxazol-4-yl)methyl]prop-2-enamide] reads 52.6%.
`C=CC(=O)N1CCC(C(=O)NCC(O)c2c(F)cccc2F)CC1` (centres unmarked) [2-P14, N-[2-(2,6-difluorophenyl)-2-hydroxyethyl]-1-(prop-2-enoyl)piperidine-4-carboxamide]: the viability at 48 h, 25 µM was 102%.
In the case of `C=CC(=O)NCC1(c2ccnn2C)CC1` [2-P15, N-{[1-(1-methyl-1H-pyrazol-5-yl)cyclopropyl]methyl}prop-2-enamide] it was 78.8%.
Consider `C=CC(=O)NCCC(=O)N1CCCN(c2cccnn2)CC1` [2-P16, N-{3-oxo-3-[4-(pyridazin-3-yl)-1,4-diazepan-1-yl]propyl}prop-2-enamide], for which the viability at 48 h, 25 µM came to 77.8%.
In the case of `C=CC(=O)NC(C)(C)c1ccc(S(N)(=O)=O)cc1F` [2-P17, N-[2-(2-fluoro-4-sulfamoylphenyl)propan-2-yl]prop-2-enamide] it was 58.6%; in that of `C=CC(=O)Nc1cc(NC(=O)[C@@H]2CSCN2C(=O)CC)ccc1F` [2-P18, (4R)-N-[4-fluoro-3-(prop-2-enamido)phenyl]-3-propanoyl-1,3-thiazolidine-4-carboxamide], 91.2%; in that of `C=CC(=O)NCc1ccc(S(=O)(=O)NC2CC2)cc1` [2-P19, N-{[4-(cyclopropylsulfamoyl)phenyl]methyl}prop-2-enamide], 62.3%.
As for `C=CC(=O)N1CCC(C(=O)NC2CCc3ncnn3C2)CC1` (centres unmarked) [2-P20, 1-(prop-2-enoyl)-N-{5H,6H,7H,8H-[1,2,4]triazolo[1,5-a]pyridin-6-yl}piperidine-4-carboxamide], the viability at 48 h, 25 µM is 98%.
In the case of `C=CC(=O)NCc1ncc(C)o1` [2-P21, N-[(5-methyl-1,3-oxazol-2-yl)methyl]prop-2-enamide] it was 48.8%.
As for `C=CC(=O)N(C)CC(=O)NC1CCCN(c2ccc(F)cc2F)C1=O` (centres unmarked) [2-P22, N-({[1-(2,4-difluorophenyl)-2-oxopiperidin-3-yl]carbamoyl}methyl)-N-methylprop-2-enamide], the viability at 48 h, 25 µM was found to be 24.4%.
In the case of `C=CC(=O)NCC(C)(C)c1coc(-c2ccccc2)n1` [3-A03, N-[2-methyl-2-(2-phenyl-1,3-oxazol-4-yl)propyl]prop-2-enamide] it was 45.6%.
As for `C=CC(=O)N(C)CC(=O)N1CCn2cc(C(F)(F)F)nc2C1` [3-A04, N-methyl-N-{2-oxo-2-[2-(trifluoromethyl)-5H,6H,7H,8H-imidazo[1,2-a]pyrazin-7-yl]ethyl}prop-2-enamide], the viability at 48 h, 25 µM came to 60.6%.
The result for `C=CC(=O)NCC1CN(Cc2cccc(C)c2)CCO1` (centres unmarked) [3-A05, N-({4-[(3-methylphenyl)methyl]morpholin-2-yl}methyl)prop-2-enamide] reads 41%; that for `C=CC(=O)N(C)CC(=O)NC1CCC(N2CCCCC2=O)CC1` (centres unmarked) [3-A06, N-methyl-N-({[4-(2-oxopiperidin-1-yl)cyclohexyl]carbamoyl}methyl)prop-2-enamide], 62.1%.
In the case of `C=CC(=O)N1CCc2[nH]cnc2C1c1ccnn1C` (centres unmarked) [3-A07, 1-[4-(1-methyl-1H-pyrazol-5-yl)-1H,4H,5H,6H,7H-imidazo[4,5-c]pyridin-5-yl]prop-2-en-1-one] it was 29.2%.
Take `C=CC(=O)N(CC)CC(=O)N1CCC(c2nnc(C)o2)CC1` [3-A08, N-ethyl-N-{2-[4-(5-methyl-1,3,4-oxadiazol-2-yl)piperidin-1-yl]-2-oxoethyl}prop-2-enamide]: the viability at 48 h, 25 µM is 66.3%.
In the case of `C=CC(=O)N1CCOC(c2ccc(F)c(C)c2)C1` (centres unmarked) [3-A09, 1-[2-(4-fluoro-3-methylphenyl)morpholin-4-yl]prop-2-en-1-one] it was 38.4%.
Regarding `C=CC(=O)NC1CCS(=O)(=O)C(C)C1` (centres unmarked) [3-A10, N-(2-methyl-1,1-dioxo-1lambda6-thian-4-yl)prop-2-enamide], the viability at 48 h, 25 µM turned out to be 68.8%.
In the case of `C=CC(=O)N1CCC(Cc2nc(CC)no2)CC1` [3-A11, 1-{4-[(3-ethyl-1,2,4-oxadiazol-5-yl)methyl]piperidin-1-yl}prop-2-en-1-one] it was 60.7%.
Consider `C=CC(=O)N(C)CC(=O)NC1CCCN(c2cc(C)nc(C)n2)C1` (centres unmarked) [3-A12, N-({[1-(2,6-dimethylpyrimidin-4-yl)piperidin-3-yl]carbamoyl}methyl)-N-methylprop-2-enamide], for which the viability at 48 h, 25 µM amounted to 74.4%.
The result for `C=CC(=O)N1CCCC(c2nc(N(C)C)no2)C1` (centres unmarked) [3-A13, 1-{3-[3-(dimethylamino)-1,2,4-oxadiazol-5-yl]piperidin-1-yl}prop-2-en-1-one] reads 29.9%.
Consider `C=CC(=O)N(CC)CC(=O)N1CCc2[nH]nc(C(F)(F)F)c2C1` [3-A14, N-ethyl-N-{2-oxo-2-[3-(trifluoromethyl)-1H,4H,5H,6H,7H-pyrazolo[4,3-c]pyridin-5-yl]ethyl}prop-2-enamide], for which the viability at 48 h, 25 µM was determined as 64.2%.
The result for `C=CC(=O)NC(C)c1nnnn1C` (centres unmarked) [3-A15, N-[1-(1-methyl-1H-1,2,3,4-tetrazol-5-yl)ethyl]prop-2-enamide] reads 23.9%; that for `C=CC(=O)N1CCC(C(=O)NCC2COC3(CCCC3)O2)CC1` (centres unmarked) [3-A16, N-({1,4-dioxaspiro[4.4]nonan-2-yl}methyl)-1-(prop-2-enoyl)piperidine-4-carboxamide], 73.4%.
For the compound `C=CC(=O)N1CCOC(c2nc(C)cs2)C1` (centres unmarked) [3-A17, 1-[2-(4-methyl-1,3-thiazol-2-yl)morpholin-4-yl]prop-2-en-1-one], the viability at 48 h, 25 µM is 26.2%.
The result for `C=CC(=O)N1CCOC(CNC(=O)NC)C1` (centres unmarked) [3-A18, 3-methyl-1-{[4-(prop-2-enoyl)morpholin-2-yl]methyl}urea] reads 93.3%.
Take `C=CC(=O)N1CCN(S(=O)(=O)c2ccc(C(C)(C)C)cc2)CC1` [3-A19, 1-[4-(4-tert-butylbenzenesulfonyl)piperazin-1-yl]prop-2-en-1-one]: the viability at 48 h, 25 µM was found to be 24.5%.
For `C=CC(=O)NC(C)c1ccc(S(=O)(=O)N(C)C)cc1` (centres unmarked) [3-A20, N-{1-[4-(dimethylsulfamoyl)phenyl]ethyl}prop-2-enamide], the viability at 48 h, 25 µM is 51.5%.
The result for `C=CC(=O)N1CCCN(C(=O)c2ccc(OC)cc2)CC1` [3-A21, 1-[4-(4-methoxybenzoyl)-1,4-diazepan-1-yl]prop-2-en-1-one] reads 53.5%.
For `C=CC(=O)N(C)C[C@@H]1CCC(=O)N1` [3-A22, N-methyl-N-{[(2S)-5-oxopyrrolidin-2-yl]methyl}prop-2-enamide], the viability at 48 h, 25 µM is 150%.
Take `C=CC(=O)N1CCC(C(=O)NCc2nccn2-c2ccccc2)CC1` [3-B03, N-[(1-phenyl-1H-imidazol-2-yl)methyl]-1-(prop-2-enoyl)piperidine-4-carboxamide]: the viability at 48 h, 25 µM stood at 86.5%.
The result for `C=CC(=O)N1CC(n2nc(C)cc2C)C1` [3-B04, 1-[3-(3,5-dimethyl-1H-pyrazol-1-yl)azetidin-1-yl]prop-2-en-1-one] reads 77.4%; that for `C=CC(=O)NCc1ccc(C(=O)N2CCOC3(CCCC3)C2)cc1` [3-B05, N-[(4-{6-oxa-9-azaspiro[4.5]decane-9-carbonyl}phenyl)methyl]prop-2-enamide], 69.9%; that for `C=CC(=O)Nc1ccc(OC)c(COC)c1` [3-B06, N-[4-methoxy-3-(methoxymethyl)phenyl]prop-2-enamide], 89.7%.
In the case of `C=CC(=O)N1CCC(C(=O)Nc2ccn(Cc3ccccn3)n2)CC1` [3-B07, 1-(prop-2-enoyl)-N-{1-[(pyridin-2-yl)methyl]-1H-pyrazol-3-yl}piperidine-4-carboxamide] it was 53.3%.
The result for `C=CC(=O)Nc1ccc(C(=O)NC2CC(C)(C)OC2=O)cc1` (centres unmarked) [3-B08, N-(5,5-dimethyl-2-oxooxolan-3-yl)-4-(prop-2-enamido)benzamide] reads 82.4%.
As to `C=CC(=O)NC1(C(N)=O)CCCC1C` (centres unmarked) [3-B09, 2-methyl-1-(prop-2-enamido)cyclopentane-1-carboxamide], the viability at 48 h, 25 µM is 54.5%.
On to `C=CC(=O)Nc1cn(CCC)cn1` [3-B10, N-(1-propyl-1H-imidazol-4-yl)prop-2-enamide], for which the viability at 48 h, 25 µM was determined as 91.1%.
`C=CC(=O)N[C@H](C)c1cnnn1C` [3-B11, N-[(1R)-1-(1-methyl-1H-1,2,3-triazol-5-yl)ethyl]prop-2-enamide]: the viability at 48 h, 25 µM is 73.8%.
In the case of `C=CC(=O)N1CCC(C(=O)NCc2nc(C)c(C)s2)CC1` [3-B12, N-[(4,5-dimethyl-1,3-thiazol-2-yl)methyl]-1-(prop-2-enoyl)piperidine-4-carboxamide] it was 87.5%.
Consider `C=CC(=O)NC(C)c1ccc(-n2ccnn2)cc1` (centres unmarked) [3-B13, N-{1-[4-(1H-1,2,3-triazol-1-yl)phenyl]ethyl}prop-2-enamide], for which the viability at 48 h, 25 µM was found to be 59.2%.
As to `C=CC(=O)N1CCC(C(=O)N[C@@H]2C[C@H]2c2ccc(Cl)c(F)c2)CC1` [3-B14, N-[(1R,2S)-2-(4-chloro-3-fluorophenyl)cyclopropyl]-1-(prop-2-enoyl)piperidine-4-carboxamide], the viability at 48 h, 25 µM turned out to be 78.3%.
